What was measured:
Type in all cases: physicochemical
[1] = Solid form stability on standing (XRD/PLM)
Source text: The resulting solid sample was subjected to a corresponding characterization test. An XRD pattern of the sample can be seen in FIG. 8.
A crystal form E sample was obtained by suspending and stirring the amorphous sample prepared in Example 2 in a 1,4-dioxane/n-heptane solvent system at room temperature. XRD results of the sample can be seen in FIG. 9. […] On this basis, it was inferred that the crystal form E was a metastable crystal form.
XRD results of the sample can be seen in FIG. 17.
XRD results of the sample can be seen in FIG. 20. TGA/DSC results can be seen in FIG. 21. […] An ^1H NMR spectrum of the crystal form D was obtained by a test in DMSO-d6, and no obvious solvent residue was observed. […] Based on nuclear magnetic resonance data and heating test results of the sample, it was inferred that the crystal form D was a hydrate crystal form.

[2] = pH-dependent solubility study; settings: increasing with rising pH
Source text: Following oral administration, the drug can be absorbed at multiple different sites along the gastrointestinal tract (including via the stomach, duodenum, jejunum, ileum, and colon). There is a significant pH change between the stomach (pH 1-3.5) and the small intestine (pH 4-8), resulting in different pH conditions at each absorption site. […] In dissolution studies, it was observed that the sink condition can be satisfied in pH 6.8 medium supplemented with SDS.

[3] = Stability study of tablets (40°C/75%RH): related substances; settings: condition N/A
Description: The inventors produced tablet 1 (40 mg) and the tablet 2 (10 mg) according to the formulations in Example 1 and Example 2. The above samples were stored under conditions of 40°C/75%RH (open), 40°C/75%RH (sealed), and 40°C/75%RH (sealed+1 g desiccant) to investigate dissolutions and related substances.

[4] = listed as Active pharmaceutical ingredient^*2

Structure (SMILES): C[C@@H](Nc1ccn2ncc(C3=NOC(C)(C)N3)c2n1)c1cc(F)cc(F)c1F [crystal form B]
- Solid form stability ([1]; room humidity (17.3%RH), same day): rapidly transformed into a crystal form C

Structure (SMILES): C[C@@H](Nc1ccn2ncc(C3=NOC(C)(C)N3)c2n1)c1cc(F)cc(F)c1F [TY-2136b, (R)-3-(5,5-dimethyl-4,5-dihydro-1,2,4-oxadiazol-3-yl)-N-(1-(2,3,5-trifluorophenyl)ethyl)pyrazolo[1 ,5-a]pyrimidin-5-amine]
- solubility [2]: generally low

Structure (SMILES): C[C@@H](Nc1ccn2ncc(C3=NOC(C)(C)N3)c2n1)c1cc(F)cc(F)c1F [crystal form D]
- Solid form stability ([1]; heating to 120°C and cooling to room temperature): transformed into an amorphous form
- Crystallinity ([1]; standing sealed at room temperature for 2 days): significantly reduced

Structure (SMILES): C[C@@H](Nc1ccn2ncc(C3=NOC(C)(C)N3)c2n1)c1cc(F)cc(F)c1F.O [Active pharmaceutical ingredient]
- Individual impurity (RRT) 0.56 [3]: <0.05%
- Individual impurity (RRT) 0.66/ 0.67/ 0.69/ 0.70 [3]: 0.22%
- Individual impurity (RRT) 0.71/ 0.72/ 0.73/ 0.74 [3]: 0.18%
- Individual impurity (RRT) 0.91 [3]: <0.05%
- Individual impurity (RRT) 1.02 [3]: 0.27%
- Individual impurity (RRT) 1.05/ 1.06 [3]: 0.07%
- Individual impurity (RRT) 1.07/ 1.08 [3]: 0.18%
- Individual impurity (RRT) 1.14 [3]: <0.05%
- Total impurities [3]: 0.92%
- Individual impurity (RRT) 0.71/ 0.72/ 0.73/ 0.74 [3, 4]: 0.19%
- Individual impurity (RRT) 1.02 [3, 4]: 0.32%
- Individual impurity (RRT) 1.07/ 1.08 [3, 4]: 0.19%
- Total impurities [3, 4]: 0.99%

Source: patent EP4813989A1, “CRYSTAL, PHARMACEUTICAL COMPOSITION, PREPARATION METHOD THEREFOR, AND USE THEREOF” (TYK Medicines, Inc., priority 2023, dated 2025)
